Molecules are shown by their SMILES. ± gives the expanded uncertainty stated by the source.

We go through 4 molecules from the NIST ThermoML archive (doi:10.1021/je3002078).

For the data set the following is noted: Liquid; for mass density: 101.33 kPa, Vibrating tube method; for vapor or sublimation pressure: Ebulliometric method (Recirculating still).

With `OCCCl` [1-chloro-2-hydroxyethane], the mass density is given as 1192.48 ± 0.53 kg/m3 (303.15 K) and 1186.44 ± 0.53 kg/m3 (308.15 K). Further, the “vapor or sublimation pressure” value (399.89 K) is given as 95.3 ± 7.1 kPa.

Turning to `NCCO` [2-aminoethan-1-ol], the mass density was determined as 1008.12 ± 0.51 kg/m3 (303.15 K) and 1005.08 ± 0.51 kg/m3 (308.15 K). For the same molecule, the “vapor or sublimation pressure” value (442.28 K) was determined as 95.3 ± 7.1 kPa.

As to `OCCc1ccccc1` [2-phenylethanol], the mass density was found to be 1012.65 ± 0.51 kg/m3 (303.15 K) and 1008.68 ± 0.51 kg/m3 (308.15 K). Further, under “489.79 K”, the “vapor or sublimation pressure” value amounted to 95.3 ± 7.1 kPa.

On to `CN1CCCC1=O` [N-methylpyrrolidone], for which the mass density (303.15 K) came out at 1023.45 ± 0.51 kg/m3 and the mass density (308.15 K) was found to be 1013.34 ± 0.51 kg/m3. For the same molecule, the “vapor or sublimation pressure” value (474.01 K) amounted to 95.3 ± 7.1 kPa.

The mass density is mass per unit of volume. As usually defined, the vapor or sublimation pressure is the equilibrium pressure above the liquid or solid.
